Common to all, as to test: Enzyme Assay and Determination of the Inhibition Constants
The target in assay [1] is Urokinase-type plasminogen activator (Homo sapiens, UniProt P00749).
Assay [2] has as its target Plasminogen (Homo sapiens, UniProt P00747). The following applies: pH 7.4; 22 °C.
Assay [3] addresses Serine protease hepsin (Homo sapiens, UniProt P05981).
Assay [4] addresses Coagulation factor X (Homo sapiens, UniProt P00742).
Assay [5] deals with Serine protease 1 (Homo sapiens, UniProt P07477). The following applies: pH 7.4; 22 °C.
Serine protease 1, sequence (P07477 whole entry): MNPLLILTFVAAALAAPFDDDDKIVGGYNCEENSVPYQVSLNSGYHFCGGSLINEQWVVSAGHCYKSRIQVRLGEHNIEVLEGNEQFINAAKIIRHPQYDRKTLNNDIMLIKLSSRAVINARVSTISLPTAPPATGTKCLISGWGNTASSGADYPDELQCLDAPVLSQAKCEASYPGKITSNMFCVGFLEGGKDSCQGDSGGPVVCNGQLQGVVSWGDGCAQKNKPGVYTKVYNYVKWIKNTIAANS
Assay [6] deals with Tissue-type plasminogen activator (Homo sapiens, UniProt P00750).
Tissue-type plasminogen activator, sequence (P00750 whole entry): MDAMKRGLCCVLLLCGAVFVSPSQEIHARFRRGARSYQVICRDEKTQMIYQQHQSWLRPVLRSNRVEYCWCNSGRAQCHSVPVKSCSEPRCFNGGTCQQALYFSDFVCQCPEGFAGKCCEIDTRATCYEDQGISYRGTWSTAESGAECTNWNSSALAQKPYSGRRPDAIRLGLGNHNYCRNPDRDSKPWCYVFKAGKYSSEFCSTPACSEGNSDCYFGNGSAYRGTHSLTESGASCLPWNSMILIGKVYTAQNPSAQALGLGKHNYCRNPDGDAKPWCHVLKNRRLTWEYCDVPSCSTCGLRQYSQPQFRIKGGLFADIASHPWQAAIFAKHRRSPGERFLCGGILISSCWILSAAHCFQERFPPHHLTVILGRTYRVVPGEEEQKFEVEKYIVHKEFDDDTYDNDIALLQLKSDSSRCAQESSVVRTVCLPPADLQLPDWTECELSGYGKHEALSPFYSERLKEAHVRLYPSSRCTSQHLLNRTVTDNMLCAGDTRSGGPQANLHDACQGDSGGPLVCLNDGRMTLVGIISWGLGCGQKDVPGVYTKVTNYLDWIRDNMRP
Assay [7] deals with Prothrombin (Homo sapiens, UniProt P00734).
For assay [8], the target named is T1, Urokinase-type plasminogen activator [179-431,I214M,N322A,S371A] (Homo sapiens, UniProt P00749, I214M/N322A/S371A).
T1 construct: 179-431

Assay [9] has as its target Tryptase beta-2 (Homo sapiens, UniProt P20231).

“And” between values parts separate entries of the source, which are not always exact repeats. Identical values can stand only once.

Tryptase beta-2, sequence (P20231 as listed by the source): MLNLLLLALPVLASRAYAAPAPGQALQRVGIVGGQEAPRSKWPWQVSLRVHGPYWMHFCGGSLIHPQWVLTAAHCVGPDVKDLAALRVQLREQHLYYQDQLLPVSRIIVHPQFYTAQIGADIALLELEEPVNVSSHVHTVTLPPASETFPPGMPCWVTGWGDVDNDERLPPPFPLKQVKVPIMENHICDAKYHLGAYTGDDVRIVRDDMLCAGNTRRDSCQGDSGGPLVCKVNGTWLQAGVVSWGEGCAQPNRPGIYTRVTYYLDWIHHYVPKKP
Plasminogen, sequence (P00747 97-580 limits assumed): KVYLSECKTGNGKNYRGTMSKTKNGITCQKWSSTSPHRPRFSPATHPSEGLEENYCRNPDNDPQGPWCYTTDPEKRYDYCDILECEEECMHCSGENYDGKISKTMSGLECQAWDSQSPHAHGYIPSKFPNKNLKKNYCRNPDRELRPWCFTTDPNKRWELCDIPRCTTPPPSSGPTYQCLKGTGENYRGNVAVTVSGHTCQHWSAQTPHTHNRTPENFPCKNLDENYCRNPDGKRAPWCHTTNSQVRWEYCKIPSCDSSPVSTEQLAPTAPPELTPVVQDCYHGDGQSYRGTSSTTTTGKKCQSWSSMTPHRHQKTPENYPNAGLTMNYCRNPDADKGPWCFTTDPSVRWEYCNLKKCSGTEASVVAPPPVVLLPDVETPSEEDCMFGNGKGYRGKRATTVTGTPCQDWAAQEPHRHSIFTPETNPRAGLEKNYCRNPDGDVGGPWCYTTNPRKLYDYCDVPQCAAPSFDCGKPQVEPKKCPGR
Plasminogen, sequence (P00747 581-810 limits assumed): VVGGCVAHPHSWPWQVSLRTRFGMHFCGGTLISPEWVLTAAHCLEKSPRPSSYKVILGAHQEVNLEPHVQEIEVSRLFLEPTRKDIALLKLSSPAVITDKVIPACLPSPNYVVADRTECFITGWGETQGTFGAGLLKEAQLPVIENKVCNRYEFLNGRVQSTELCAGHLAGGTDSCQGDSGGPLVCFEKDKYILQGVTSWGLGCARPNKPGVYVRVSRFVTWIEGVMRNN
Serine protease hepsin, sequence (P05981 1-162 limits assumed): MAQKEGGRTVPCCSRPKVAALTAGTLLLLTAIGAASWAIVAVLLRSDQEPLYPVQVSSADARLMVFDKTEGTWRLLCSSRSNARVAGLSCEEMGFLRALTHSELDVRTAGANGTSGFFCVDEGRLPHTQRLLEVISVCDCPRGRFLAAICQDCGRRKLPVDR
Serine protease hepsin, sequence (P05981 163-417 limits assumed): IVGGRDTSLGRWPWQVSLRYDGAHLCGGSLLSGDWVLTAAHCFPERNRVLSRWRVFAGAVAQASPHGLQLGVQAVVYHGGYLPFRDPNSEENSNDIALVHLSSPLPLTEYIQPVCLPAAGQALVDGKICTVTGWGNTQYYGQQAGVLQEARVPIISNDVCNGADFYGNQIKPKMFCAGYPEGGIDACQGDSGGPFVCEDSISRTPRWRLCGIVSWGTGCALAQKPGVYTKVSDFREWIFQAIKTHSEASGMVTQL
Coagulation factor X, sequence (P00742 41-179 limits assumed): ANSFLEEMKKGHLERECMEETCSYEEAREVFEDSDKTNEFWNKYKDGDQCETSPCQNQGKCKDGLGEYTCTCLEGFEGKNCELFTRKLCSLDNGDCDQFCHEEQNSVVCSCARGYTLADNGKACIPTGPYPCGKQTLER
Coagulation factor X, sequence (P00742 235-488 limits assumed): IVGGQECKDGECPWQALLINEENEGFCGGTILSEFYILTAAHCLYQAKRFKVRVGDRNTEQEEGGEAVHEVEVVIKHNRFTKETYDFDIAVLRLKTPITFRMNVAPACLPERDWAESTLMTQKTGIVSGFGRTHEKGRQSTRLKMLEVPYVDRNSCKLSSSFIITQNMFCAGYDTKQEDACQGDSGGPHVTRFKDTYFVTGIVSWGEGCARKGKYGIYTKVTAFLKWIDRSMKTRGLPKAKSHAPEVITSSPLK

`Nc1nc2cc(NC(=O)c3cccc(-c4ccccc4)c3O)ccc2[nH]1` [2-amino-5-[(2-hydroxy-3-phenylbenzene)amido]-1H-1,3-benzodiazol-3-ium]: the Ki (as a rule, the dissociation constant of the complex between target and ligand, obtained from inhibition or displacement) in [1] is 4.1 µM; in assay [2], above 75 µM; in [3], above 75 µM; in assay [4], above 450 µM; in assay [5] it was 130 µM; in [6] it was 270 µM. In addition, in [7], the Ki was above 450 µM.

`Nc1nc2cc(NC(=O)c3cc4ccccc4cc3O)ccc2[nH]1` [2-amino-5-[(3-hydroxynaphthalene-2-)amido]-1H-1,3-benzodiazol-3-ium]: the Ki was 4.6 µM and 4.5 µM in assay [1]; above 75 µM in [2]; 42 µM in assay [8]; 2.1 µM in assay [3]; 200 µM in assay [4]; 37 µM in [5]. Also, the Ki in assay [6] and in assay [7] was above 450 µM each time.

For `CC(C)COc1cccc(-c2nc3ccc(C(=N)N)cc3[nH]2)c1O` [2-{5-[amino(iminiumyl)methyl]-1H-1,3-benzodiazol-2-yl}-6-(2-methylpropoxy)benzen-1-olate], the Ki in [1] turned out to be 0.19 µM; in assay [8], 3.9 µM.

`N=C(N)c1cc2nc(-c3cccc(-c4ccccc4)c3O)[nH]c2cc1F` [2-{5-[amino(iminiumyl)methyl]-6-fluoro-1H-1,3-benzodiazol-2-yl}-6-phenylbenzen-1-olate]: the Ki in [1] was found to be 0.37 µM; in assay [8] it was 39 µM; in assay [5], 10 µM; in assay [9], 4.7 µM.

`C[C@H]1CCCC[C@@H]1Oc1cccc(-c2nc3cc(C(=N)N)c(F)cc3[nH]2)c1O` [2-{5-[amino(iminiumyl)methyl]-6-fluoro-1H-1,3-benzodiazol-2-yl}-6-{[(1S,2S)-2-methylcyclohexyl]oxy}benzen-1-olate] yielded a Ki in assay [9] of 2.5 µM.

For the compound `N=C(N)c1ccc2nc(-c3cccc(OC4CCCC4)c3O)[nH]c2c1` [CA-06], the Ki in assay [1] stood at 0.19 µM; in assay [8] it was 4.4 µM.

Turning to `CC(C)COc1cccc(-c2nc3cc(F)c(C(=N)N)cc3[nH]2)c1O` [CA-10], the results for the Ki in assay [1] and in assay [8] were 0.15 µM and 23 µM, respectively.

On to `N=C(N)c1ccc2[nH]c(-c3cccc(-c4ccccc4)c3O)cc2c1` [CRA-8696], for which the Ki in [1] worked out at 0.033 µM; in assay [3], 0.085 µM.

On to `NC(N)=Nc1ccc(NC(=O)c2cc3ccccc3cc2O)cc1` [[amino({4-[(3-hydroxynaphthalene-2-)amido]phenyl}amino)methylidene]azanium], for which the Ki was 0.62 µM and 0.39 µM in [1]; 130 µM in [2]; 10 µM in assay [8]; 2.6 µM in assay [3]; above 450 µM in assay [4]; 16 µM in [5]. For the same compound, the Ki in assay [9] is 2 µM; in assay [6], 670 µM; in [7], 290 µM.

As for `NC(N)=Nc1ccc(NC(=O)c2cc3ccccc3c(O)c2O)cn1` [[amino({5-[(3,4-dihydroxynaphthalene-2-)amido]pyridin-2-yl}amino)methylidene]azanium], the Ki is 0.017 µM and 0.041 µM in assay [1]; 4 µM in [2]; 0.28 µM in assay [8]; 80 µM in assay [4]; 42 µM in assay [5]; above 450 µM in assay [7].

In the case of `N=C(N)Nc1ccc(NC(=O)c2cc3ccccc3cc2O)cn1` [[amino({5-[(3-hydroxynaphthalene-2-)amido]pyridin-2-yl}amino)methylidene]azanium], the Ki in [1] is 0.1 µM and 0.2 µM; in assay [2], 130 µM; in assay [8] it was 1.1 µM; in [4], 70 µM; in [5], 9.6 µM; in assay [9], 0.87 µM. Moreover, the Ki was 180 µM in assay [6] and 54 µM in assay [7].

Source of the values: BindingDB's records for doi:10.1016/j.jmb.2004.09.032 (Celera, 2004).
